{"source": "patent US20260144820A1", "about": "“ACTIVATION OF RESIDENT MEMORY T CELLS FOR CANCER IMMUNOTHERAPY” (priority 2015, published 2026)", "key": {"[1]": {"system": "VSV-Ova specific TRM", "design": "species or system mice", "details": "mouse, in vivo"}, "[2]": {"system": "virus-specific TRM within skin tumors", "design": "species or system mice", "details": "mouse, in vivo"}}, "data": [{"sequence": "SIINFEKL", "values": [{"measurement": "reactivation of virus-specific TRM within skin tumors", "setting": "[1]", "value": "can become reactivated"}, {"measurement": "recruitment of CD8 T cells and NK cells to tumors", "setting": "[2]", "value": "recruit CD8 T cells and NK cells to the tumors"}]}]}
